From PMC3071440 (Journal of medicinal chemistry, 2010)

Assays:
[1] = In vivo PK in rats following oral administration; conditions: rat, oral 10 mg/kg, harvested at or near Tmax
[2] = rat, oral 10 mg/kg; cited from earlier work

Row | SMILES | Brain level [1] [µM] | brain levels following oral dosing [2]
1 | O=C(O)c1cc(-c2cccc(COc3ccc4c(c3)CN(C3CCCC3)C4=O)c2)ccc1Cl [Compound 8a, 4-Chloro-3′-((2-cyclopentyl-1-oxoisoindolin-5-yloxy)-methyl)biphenyl-3-carboxylic acid] | 3.8 ± 1.2 | –
2 | Cc1c(OCc2cccc(-c3ccc(C(=O)O)cc3)c2)cc2c(c1C)C(=O)C(C1CCCC1)C2 (centres unmarked) [Compound 1, 3′-((2-cyclopentyl-6,7-dimethyl-1-oxo-2,3-dihydro-1H-inden-5-yloxy)methyl)biphenyl-4-carboxylic acid] | – | below the limit of quantitation
